Several values for one entry are separate records, joined by “and”; a condition that tells them apart may be missing. Equal entries are not always repeated.
Key:
Genome polyprotein [1] = biological target: T1, Genome polyprotein (dengue virus type 2, UniProt P29990); assay type: functional, Thailand/16681/1984
Genome polyprotein [2] = biological target: T1, Genome polyprotein; assay type: functional, Thailand/16681/1984; remark: listed apart in the source

T1 sequence (P29990 1346-1475 limits assumed): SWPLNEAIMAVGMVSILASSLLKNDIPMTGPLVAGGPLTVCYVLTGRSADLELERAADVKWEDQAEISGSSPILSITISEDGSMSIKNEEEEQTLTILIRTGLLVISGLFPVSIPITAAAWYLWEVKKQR
T1 sequence (P29990 1476-2093 limits assumed): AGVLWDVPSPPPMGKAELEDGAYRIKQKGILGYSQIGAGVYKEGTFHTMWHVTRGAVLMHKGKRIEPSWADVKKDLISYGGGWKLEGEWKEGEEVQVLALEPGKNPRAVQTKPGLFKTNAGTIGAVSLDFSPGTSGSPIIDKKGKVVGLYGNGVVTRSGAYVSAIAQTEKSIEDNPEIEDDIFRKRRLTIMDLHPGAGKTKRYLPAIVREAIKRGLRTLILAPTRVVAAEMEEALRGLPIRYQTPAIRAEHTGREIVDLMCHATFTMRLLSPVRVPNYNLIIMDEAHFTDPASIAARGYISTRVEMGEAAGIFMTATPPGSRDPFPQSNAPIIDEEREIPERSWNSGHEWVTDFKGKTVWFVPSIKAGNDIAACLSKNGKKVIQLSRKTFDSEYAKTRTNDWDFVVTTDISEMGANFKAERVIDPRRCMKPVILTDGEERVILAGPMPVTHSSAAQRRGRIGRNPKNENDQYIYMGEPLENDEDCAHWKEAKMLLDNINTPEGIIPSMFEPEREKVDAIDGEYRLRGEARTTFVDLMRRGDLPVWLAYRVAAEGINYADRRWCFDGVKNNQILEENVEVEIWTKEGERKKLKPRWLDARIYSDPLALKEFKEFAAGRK

| Structure (SMILES) | IC50 (Genome polyprotein [1]) | IC50 (Genome polyprotein [2]) |
| --- | --- | --- |
| O=C(Nc1ccc2c(c1)CNC2)c1ccc2[nH]ncc2c1 | > 99.5 µM | > 100 µM |
| O=C(Nc1ccc2c(c1)CNC2)c1cccc2[nH]c(C(F)(F)F)cc12 | 91.7 µM | > 100 µM |
| O=C(Nc1ccc2c(c1)CNC2)c1cc(Cl)cc2[nH]c(-c3ccnn3C3CC3)nc12 | 25.2 µM | > 100 µM |
| CN1Cc2cc(NC(=O)c3cc(Cl)cc4[nH]ncc34)ccc2C1(C)C | > 99.5 µM | > 100 µM |
| O=C(Nc1ccc2nc[nH]c2c1)c1cc(F)cc2[nH]ncc12 | > 99.5 µM | > 100 µM |
| COc1ccc2[nH]cnc2c1S(=O)(=O)Nc1ccc2c(c1)CNC2 | > 99.5 µM | > 100 µM |
| O=C1OCc2ccc(NC(=O)[C@H]3CNC4(CCCC4)C3)cc21 | > 99.5 µM | > 100 µM |
| O=C(Nc1ccc2c(c1)CNC2)c1nc(C(F)(F)F)cs1 | > 99.5 µM | > 100 µM |
| O=C(Nc1ccc2c(c1)CNC2)c1cc(Cl)cc2[nH]c(-c3c[nH]c(=O)c(Br)c3)nc12 | 12.5 µM | 13.7 µM |
| O=C(Nc1ccc2c(c1)CNC2)c1cc(Br)cc2[nH]c([C@H]3CCCO3)nc12 | > 99.5 µM | > 100 µM |
| CN1C(=O)Cc2cc(C(=O)Nc3ccc4c(c3)CNC4)ccc21 | > 99.5 µM | > 100 µM |
| C=CC[C@H]1NCc2cc(NC(=O)c3cc(Cl)cc4[nH]ncc34)ccc21 | > 99.5 µM | > 100 µM |
| O=C(Nc1ccc2c(c1)CNC2)c1cccc2c1OCCN2 | > 99.5 µM | > 100 µM |
| CC1(C)C(=O)N[C@H]2CCCN(C(=O)Nc3ccc4c(c3)CNC4)[C@H]21 | > 99.5 µM | > 100 µM |
| O=C1C[C@H]2[C@H](CCCN2C(=O)Nc2ccc3c(c2)CNC3)N1 | > 99.5 µM | 75.5 µM and 46.1 µM and > 100 µM (2×) |
| O=C(Nc1ccc2c(c1)S(=O)(=O)NC2)c1cc(Cl)cc2[nH]ncc12 | > 99.5 µM | > 100 µM |
| O=C(Nc1ccc2c(c1)CNC2)N1CCC[C@H]1c1nc2ncccc2[nH]1 | > 99.5 µM | > 100 µM |
| CC(C)(C)c1nc2c(C(=O)Nc3ccc4c(c3)CNC4)cc(Br)cc2[nH]1 | 39 µM | > 100 µM |

| Structure (SMILES) | IC50 (Genome polyprotein [1]) | IC50 (Genome polyprotein [2]) |
| --- | --- | --- |
| CNC(=O)c1cccc(C(=O)Nc2ccc3c(c2)CNC3)c1 | > 99.5 µM | > 100 µM |
| O=C(Nc1ccc2c(c1)CNC2)c1cc(Cl)cc2cc[nH]c12 | > 99.5 µM | > 100 µM |
| O=C(Nc1ccc2c(c1)CNC2)c1cccc2[nH]ccc12 | > 99.5 µM | > 100 µM |
| Cn1c(=O)[nH]c2c(C(=O)Nc3ccc4c(c3)CNC4)cc(Br)cc21 | > 99.5 µM | 42.8 µM and 34.9 µM |
| N#C[C@H](Nc1ccc2c(c1)CNC2)c1cccc2ncccc12 | > 99.5 µM | > 100 µM |
| Cc1nc2ccc(C(=O)Nc3ccc4c(c3)CNC4)cc2s1 | > 99.5 µM | > 100 µM |
| O=C(Nc1ccc2c(c1)CNC2)c1nc(-c2ccccc2)cs1 | > 99.5 µM | > 100 µM |
| COc1cc(Cl)cc(C(=O)Nc2ccc3c(c2)CNC3)c1 | > 99.5 µM | > 100 µM |
| O=C1Cc2cc(C(=O)Nc3ccc4c(c3)CNC4)ccc2N1 | 9.95 µM and 7.04 µM and 6.09 µM | > 100 µM |
| CC(=O)N1Cc2ccc(NC(=O)c3cc(Cl)cc4[nH]ncc34)cc2C1 | > 99.5 µM | > 100 µM |
| COc1ncc(Cl)cc1C(=O)Nc1ccc2c(c1)CNC2 | > 99.5 µM | > 100 µM |
| O=C1CCCc2cc(C(=O)Nc3ccc4c(c3)CNC4)ccc2N1 | > 99.5 µM | > 100 µM |
| CCC[C@H](C)N1Cc2ccc(NC(=O)c3cc(Cl)cc4[nH]ncc34)cc2C1 | > 99.5 µM | > 100 µM |
| C#Cc1cc(Cl)cc(C(=O)Nc2ccc3c(c2)CNC3)c1 | > 99.5 µM | > 100 µM |
| O=C1Cc2c(cc(Br)cc2C(=O)Nc2ccc3c(c2)C(=O)OC3)N1 | > 99.5 µM | > 100 µM |
| O=C1CN(C(=O)Nc2ccc3c(c2)CNC3)[C@H]2CCCC[C@H]2N1 | > 99.5 µM | > 100 µM |
| O=C(Nc1ccc2c(c1)CNC2)N1CCC[C@H]1Cc1cc2ccccc2o1 | > 99.5 µM | > 100 µM |
